Reference: the pKa sets of Baltruschat and Czodrowski (2020)
Where a SMILES comes first, the peptide text is derived from it.

Details: acidic group

SMILES	pKa
Cc1ccc2c(c1O)-c1c-2ccc(C)c1O	8.04
CN1C(=S)NC(=O)C12CCCCC2	9.25
S=C1NCCO1	11.1
O=C(O)C#CBr	1.9
S=CNc1cccc(Cl)c1	10.8
CCCC/C=[N+](\[O-])O	4.5
COc1ccc(C(=O)O)cc1C	4.35
O=C([O-])c1ccc(O)cc1	9.35
Cc1cccc([Se]CC(=O)O)c1	3.78
COc1cccc[n+]1O	1.23
Cc1cccc(O)c1O	9.28
CC(C)(C)P(=O)(O)C(C)(C)C	4.24
O=c1cccc(O)cc1O	5.76
COc1cc(S(C)=O)ccc1-c1nc2nccnc2[nH]1 (centres undefined)	8.94
O=[N+]([O-])c1ccc2[nH]cnc2c1	10.6
O=S1(=O)N=C[N-]c2nc[nH]c21	11
NC(=S)Nc1ccc(Br)cc1	12.3
Cc1cc(I)c(O)c(I)c1	6
COc1nc(-n2nc(C)cc2O)nc(C)c1C	7.64
COC(=O)CC(=O)c1cccnc1	8.98

SMILES	pKa
O=C([O-])[C@@H]1O[C@H](Oc2ccc3[nH+]ccc(O)c3c2)[C@@H](O)[C@H](O)[C@H]1O	3.7
O=C(O)c1c(Cl)cccc1[N+](=O)[O-]	1.41
O=S(=O)([N-]c1ncc(Cl)cn1)c1ccc(O)cc1	8.84
O=C(O)[C@H]1C[C@@H]2CC[C@H]1C2	5.02
O=C(O)CCCCc1ccccc1	4.88
CC(C)C[C@H]([NH3+])C(=O)N[C@@H](Cc1c[nH]c[nH+]1)C(=O)O	2.76
CN(C)c1ccc(C(=S)Nc2ccccc2)cc1	11.2
CC([NH3+])c1nnn[nH]1 (centres undefined)	2.63
[NH3+]CCC[SeH]	6.27
C[N+](C)(C)Cc1ccc(O)cc1	8.75
CCOc1ccccc1/C=C\C(=O)O	4.35
CCCCCC/C=N/O	11.6
O=C(O)[C@H]1O[C@H]1C(=O)[O-]	3.92
O=C(O)[C@H]1[C@@H]2C=C[C@H]1CC2	4.58
O=C(O)[C@@H](P)CC[C@H](P)C(=O)O	3.62
Oc1n[nH]c(-c2ccccc2)c1Cc1ccccc1	7.7
C[NH+](C)c1ccc(/C=C/c2cc[n+](O)cc2)cc1	1.05
CC(=O)c1cccc(NS(=O)(=O)C(F)(F)F)c1	3.75
N#CC(C#N)=C(C#N)C(C#N)C#N	1.9
Nc1ccc(O)cc1	10.1

The next lines start with the values.

pKa	SMILES
13.4	Cc1ccc(SC2CC(=O)N2)cc1 (centres undefined)
3.24	CCCCCCP(=O)(O)CCCCCC
4.68	CC(=O)C(=O)CC(=O)C(C)=O
7.01	Sc1cccnc1
10.9	Cc1cc(O)n[nH]1
5.02	S=c1[nH]c(=S)c2[nH]cnc2[nH]1
8.16	O=C([O-])CNC(=O)c1ccccc1O
11.5	Cc1ccc(C(=S)Nc2ccccc2)cc1
8.97	Oc1cccc(O)c1O
5.95	CC[NH+](CC)Cc1cc(Cl)cc(Cl)c1O
6.68	CC(C)C(=O)CC=O
4.25	C=CC(=O)O
14.9	COCCO
11.6	CC(=S)Nc1ccccc1
11.4	CNc1nc(SC)nc2[nH]ncc12
8.7	O=C([O-])CC(=O)/C=N/O
0.52	CCCNC(O)=S
8.44	Oc1ccc(/N=N/c2ccccc2)cc1
10.8	NC(=S)Nc1ccc([N+](=O)[O-])cc1
4.34	O=C1CSCC(=O)C1

pKa	SMILES
10.4	S=c1[nH]c2cc3c(cc2[nH]1)CCCC3
1.86	O=S(O)Cc1ccccc1
12.3	[O-]/N=C1\CCCCC\C1=N/O
8.02	NNC(=O)C(F)(F)C(F)(F)C(F)(F)F
5.32	CC(=O)[n+]1ccccc1
11.1	O/C(=C\c1ccccn1)c1ccccc1
9.54	O=C(CC(=O)c1ccccc1)Nc1cccc([N+](=O)[O-])c1
3.61	CC[NH2+]CCC(=O)O
13.3	O=C([O-])CCC(=O)C=C=Cc1ccccc1
4.73	CCC(CC)C(=O)O
3.98	CNC(=O)/C=C\C(=O)O
8.33	Oc1cncc2cccnc12
9.32	COc1ccc(B(O)O)cc1
10.3	Cc1ccc(C(C)C)cc1O
10.2	CCCOc1ccc(O)cc1
13.2	OCC(Cl)Cl
3.38	CC(O)(c1ccccc1)C(C(=O)O)c1ccc(-c2ccccc2)cc1 (centres undefined)
2.77	CCN(CC)S(=O)(=O)c1ccsc1C(=O)O
1.9	O=C(O)c1cccc2ccc[nH+]c12

Same assay, conditions: basic group

SMILES	pKa
OC(c1ccccc1)(c1ccccc1)c1ccccn1	3.9
C[C@]1(N)C[C@@H]1N	9.06
Cc1cnc2ccccc2c1	5.15
CCN(C#N)CC	-2
C=C[C@H]1C[NH+]2CC[C@@H]1C[C@H]2[C@H](O)c1ccnc2ccc(OC)cc12	4.22
NC/C=C\C(=O)[O-]	9.84
Cc1nc2c(n1C)C(=O)c1ncnc([O-])c1C2=O	6.15
CC1(C)OC(=O)C[C@H]2[C@@H](C(=O)[O-])NC[C@H]21	9
CN(C)CCCCC(=O)Oc1ccc([N+](=O)[O-])cc1	9.9
OCc1cc(-c2ccccc2)nnc1NCC[NH+]1CCOCC1	3.81
Cc1nc(-c2ccccc2)[nH]c1C	7
Cn1cnc2cccc(N)c21	5.79
CCCOC(=O)c1ccc(N)cc1	2.49
NC1=[NH+][C@@H](CC(=O)[O-])C(=O)N1CCCC(N)C(=O)[O-] (some centres undefined)	8.1
COc1cc(C)nc(NN)n1	6.2
O=[N+]([O-])c1ccc2[nH]cnc2c1	3.77
Cc1nc(C)c(C)[nH+]c1C	-2.73
NCCCCCCC(=O)[O-]	10.9
COc1ccc2nccc(C(O)C3CCCCN3)c2c1 (centres undefined)	9.3
Cc1cccc(/N=N/c2ccc(N(C)C)cc2)c1	2.33
NCCCCC(=O)[O-]	10.8
Nc1cc2ccccc2cc1[N+](=O)[O-]	1.48
CC(C)(N)C#N	5.3
CCCCN	10.7
c1cc(C2CCCN2)nc(C2CCCN2)c1 (centres undefined)	10.1
C#CCCN	9.23

SMILES	pKa
C[NH+](C)CCNCCN	9.12
CCCCCCCCCCCCCCCCN(CC(C)O)CC(C)O (centres undefined)	9.19
COCC(C)CN(C)C (centres undefined)	9.69
Cc1cc([O-])nc([O-])[n+]1C	10.1
CC(N)CC#N (centres undefined)	7.85
CC(C)NCC(O)c1cccc(N)c1 (centres undefined)	9.6
CC1=C(CC(C)NCC(O)c2ccc(N)cc2)CCC1(C)C (centres undefined)	9.01
COC(=O)C(N)Cc1c[nH]cn1 (centres undefined)	7.35
Nc1ccc(S(=O)(=O)Nc2ccc[nH+]c2)cc1	1.59
Nc1nc[nH+]c(N)c1N	1.47
NCCCCBr	10
CC1CC(/C=C2\CC(C)(C)CN2)=NC1(C)C (centres undefined)	12.1
CC(C)C[C@H](N)C(=O)N[C@@H](Cc1c[nH]cn1)C(=O)[O-] (H-Leu-His-OH)	7.78
C[NH+]1CCn2c(nc3ccccc32)C1	2.55
CCN(CC)CC(=O)Nc1c(C)cc(C)cc1C	7.9
C[C@@H]1N[C@H]1C	5.33
C#CCN1CCN(C(=O)OCC)CC1	5.44
CC(C)CCSC(=N)c1ccccc1	8.43
CCNCC(=O)Nc1c(C)cccc1C	8.06
NCC(O)c1ccccc1 (centres undefined)	8.94
[NH3+]CCCc1cccnc1	5.19
CC(C)[C@@]12CN[C@@H](C(=O)[O-])[C@@H]1CC(=O)O2	7.8
COc1ccnnc1	3.7
[O-]c1ncc2ccccc2n1	10.7
Nc1ccc(O)cc1	5.54

Now from value to compound:

pKa	SMILES
7.53	N[C@H]1CONC1=O
5.1	Cc1ccc2ncccc2c1
2.28	Sc1cccnc1
9.3	CN(C)CCC/N=C(\c1ccccc1)c1ccccc1O
9.12	CNC(CO)CO
7.2	[S-]c1ncccn1
3.61	Nc1cc[n+]([O-])cc1
6.18	CCN(CC)CC[NH+](CC)CC
9.2	CCCCCN(CC(O)CC)CC(O)CC (centres undefined)
9.45	Nc1cc(N)c2ccccc2n1
8.94	COc1ccc2nccc(N)c2c1
4.5	Cc1ccc2nc3ccc(C)cc3cc2c1
6.6	Nc1nncc2ccccc12
5.42	CC[NH+](CC)CCNc1cc(Nc2ccc(Cl)cc2)nc(C)n1
9	CN(C)CCC/N=C(\c1ccccc1)c1cccc2ccccc12
0.8	NC(=S=O)c1ccccc1
10.2	CCNC(C)C(=O)[O-] (centres undefined)
8.9	CCOC(=O)c1cnc2c([N+](=O)[O-])cccc2c1[O-]
7.6	CC(C)(C)N1CCCC(=O)C(O)CCC1 (centres undefined)
3.61	CNc1nc(SC)nc2[nH]ncc12
11.5	Cc1ccc(S(=O)(=O)N(C)CCC(=N)N)cc1
6.9	C[NH+](C)CCCCNc1c2ccccc2nc2cccc([N+](=O)[O-])c12
6	Cc1ccccc1N(C)C
4.42	CC(C)c1ccccc1N
7.3	CN(C)CC(CSCc1ccccc1)SCc1ccccc1 (centres undefined)

pKa	SMILES
9.99	N=c1c2ccccc2[nH]c2ccccc12
1.23	Cc1ccccc1-n1nnnc1N
10.4	Cc1cc(-c2ccccc2)nn(C)/c1=N/CCN1CCOCC1
6.08	[NH3+]CCc1c[nH]cn1
4.52	O/C(=C\c1ccccn1)c1ccccc1
1.92	O=Cc1cccc(C=O)n1
9.3	C#CC(C)(C)N(C)C(C)(C)C
7.11	Nc1nc([S-])[nH+]c([O-])c1C1=CCCCC1
11	CC1CCCCN1 (centres undefined)
10.7	CCN(CC)Cc1cc(Br)ccc1[O-]
3.22	Cc1ccnnc1
9.98	CCCNCc1ccc(C)cc1
11.2	CC1(C)CCCC(C)(C)N1
3.66	Cc1ccnc(/N=C/c2ccc([N+](=O)[O-])cc2)n1
9.2	CC(O)CN(CCO)C(C)(C)C (centres undefined)
2.04	N#Cc1cncc2ccccc12
1.99	Cc1ccncn1
8.9	CCN(CCO)CC(C)O (centres undefined)
1.67	NNC(=O)c1cc[nH+]cc1
4.85	Nc1ccc2ccnnc2c1
6.66	CN1CCCCN1C
4.58	c1ccc2c(c1)cnc1ccccc12
8.3	CCN(CC)C(C)(C)C=O
2.34	Clc1cccc(Nc2ccccc2)c1
